Results taken from US8940310B2, “Methods of treatment using TLR7 and/or TLR9 inhibitors” (Dynavax Technologies Corporation, priority 2010, dated 2015).
[I] = hypoxanthine (inosine); d = 2'-deoxy (DNA); m = 2'-O-methyl

System: human B-cells
Assay: Human B-cells cultured in the presence of IRPs, IL-6
[1] = Experiment # 4, Max Conc 4.0 uM
[2] = Experiment # 5, Max Conc 4.0 uM
[3] = Experiment # 6, Max Conc 4.0 uM
[4] = Experiment # 7, Max Conc 4.0 uM
[5] = Experiment # 8, Max Conc 2.0 uM
[6] = Experiment # 9, Max Conc 2.0 uM
[7] = Experiment # 1, Max Conc 4.0 uM
[8] = Experiment # 11, Max Conc 2.0 uM

5′-TGCTCCTGGAGGGGTTGTAAGT-3′ (DNA TGCTCCTGGAGGGGTTGTAAGT; DNA, backbone and methylation of C not given here; further chemistry not fully specified) [SEQ ID NO:67]
Normalized IL-6 Response (Percentage of Positive Control) [1]: 8%
Normalized IL-6 Response (Percentage of Positive Control) [2]: 7%
Normalized IL-6 Response (Percentage of Positive Control) [3]: 4%
Normalized IL-6 Response (Percentage of Positive Control) [4]: 8%

5′-TGCTCCTGGAGGGGTTGTAAGTTTGT-3′ (DNA TGCTCCTGGAGGGGTTGTAAGTTTGT; DNA, backbone and methylation of C not given here; further chemistry not fully specified) [SEQ ID NO:68]
Normalized IL-6 Response (Percentage of Positive Control) [2]: 12%
Normalized IL-6 Response (Percentage of Positive Control) [3]: 6%

5′-TGC TCC TGG AGG GGT TGT-HEG-HEG-3′ (DNA TGCTCCTGGAGGGGTTGTNN; 3' HEG-HEG, chemistry not fully specified) [SEQ ID NO:141]
Normalized IL-6 Response (Percentage of Positive Control) [1]: 8%
Normalized IL-6 Response (Percentage of Positive Control) [4]: 8%

5′-TGC TCC TTG AGG GGT TGT-3′ (DNA TGCTCCTTGAGGGGTTGT; DNA, backbone not given here; further chemistry not fully specified) [SEQ ID NO:69]
Normalized IL-6 Response (Percentage of Positive Control) [1]: 11%
Normalized IL-6 Response (Percentage of Positive Control) [4]: 11%

5′-TGC TCC TTG AGI GGT TGT-3′ (DNA TGCTCCTTGAGNGGTTGT; DNA, [I] at 12, backbone not given here) [SEQ ID NO:71]
Normalized IL-6 Response (Percentage of Positive Control) [1]: 12%
Normalized IL-6 Response (Percentage of Positive Control) [2]: 15%
Normalized IL-6 Response (Percentage of Positive Control) [3]: 10%
Normalized IL-6 Response (Percentage of Positive Control) [4]: 12%
Normalized IL-6 Response (Percentage of Positive Control) [5]: 4%
Normalized IL-6 Response (Percentage of Positive Control) [6]: 14%

5′-TGCTGCTCCTGGAGGGGTTGTTTGT-3′ (DNA TGCTGCTCCTGGAGGGGTTGTTTGT; DNA, backbone and methylation of C not given here; further chemistry not fully specified) [SEQ ID NO:57]
Normalized IL-6 Response (Percentage of Positive Control) [2]: 22%
Normalized IL-6 Response (Percentage of Positive Control) [3]: 17%

5′-TGCTGCTCCTGGAGGGGTTGT-3′ (DNA TGCTGCTCCTGGAGGGGTTGT; DNA, backbone and methylation of C not given here; further chemistry not fully specified) [SEQ ID NO:60]
Normalized IL-6 Response (Percentage of Positive Control) [1]: 10%
Normalized IL-6 Response (Percentage of Positive Control) [4]: 10%

5′-TGC TGC TCC TGG AGI GGT TGT AAG T-3′ (DNA TGCTGCTCCTGGAGNGGTTGTAAGT; DNA, [I] at 15, backbone and methylation of C not given here) [SEQ ID NO:78]
Normalized IL-6 Response (Percentage of Positive Control) [7]: 26%
Normalized IL-6 Response (Percentage of Positive Control) [8]: 29%

5′-TGC TGC TCC TGG AGI GGT TGT-3′ (DNA TGCTGCTCCTGGAGNGGTTGT; DNA, [I] at 15, backbone and methylation of C not given here) [SEQ ID NO:66]
Normalized IL-6 Response (Percentage of Positive Control) [7]: 20%
Normalized IL-6 Response (Percentage of Positive Control) [6]: 18%

5′-TGCTGCTCCTTGAGGGGTTGTTTGT-3′ (DNA TGCTGCTCCTTGAGGGGTTGTTTGT; DNA, backbone and methylation of C not given here; further chemistry not fully specified) [SEQ ID NO:58]
Normalized IL-6 Response (Percentage of Positive Control) [2]: 33%
Normalized IL-6 Response (Percentage of Positive Control) [3]: 29%

5′-TGCTGCTCCTTGAGGGGTTGT-3′ (DNA TGCTGCTCCTTGAGGGGTTGT; DNA, backbone and methylation of C not given here; further chemistry not fully specified) [SEQ ID NO:59]
Normalized IL-6 Response (Percentage of Positive Control) [1]: 12%
Normalized IL-6 Response (Percentage of Positive Control) [4]: 12%

5′-TGC TGC TCC TTG AGI GGT GTT GT (DNA TGCTGCTCCTTGAGNGGTGTTGT; DNA, [I] at 15, backbone not given here) [SEQ ID NO:179]
Normalized IL-6 Response (Percentage of Positive Control) [8]: 40%

5′-TGC TGC TCC TTG AGI GGT TGT AAG T (DNA TGCTGCTCCTTGAGNGGTTGTAAGT; DNA, [I] at 15, backbone not given here) [SEQ ID NO:181]
Normalized IL-6 Response (Percentage of Positive Control) [8]: 38%

5′-TGC TGC TCC TTG AGI GGT TGT TTG T-3′ (DNA TGCTGCTCCTTGAGNGGTTGTTTGT; DNA, [I] at 15, backbone and methylation of C not given here) [SEQ ID NO:62]
Normalized IL-6 Response (Percentage of Positive Control) [1]: 49%
Normalized IL-6 Response (Percentage of Positive Control) [4]: 49%

5′-TGCTTGTCCTGGAGGGGTTGT (DNA TGCTTGTCCTGGAGGGTTGT; listed as DNA, chemistry not fully specified) [SEQ ID NO:204]
Normalized IL-6 Response (Percentage of Positive Control) [1]: 9%

5′-TGC TTG TCC TGG AGI GGT GTT GT-3′ (DNA TGCTTGTCCTGGAGNGGTGTTGT; DNA, [I] at 15, backbone not given here) [SEQ ID NO:65]
Normalized IL-6 Response (Percentage of Positive Control) [7]: 38%
Normalized IL-6 Response (Percentage of Positive Control) [6]: 21%

5′-TGC TTG TCC TGG AGI GGT TGT AAG T-3′ (DNA TGCTTGTCCTGGAGNGGTTGTAAGT; DNA, [I] at 15, backbone and methylation of C not given here) [SEQ ID NO:64]
Normalized IL-6 Response (Percentage of Positive Control) [7]: 33%
Normalized IL-6 Response (Percentage of Positive Control) [5]: 19%

5′-TGC TTG TCC TGG AGI GGT TGT-3′ (DNA TGCTTGTCCTGGAGNGGTTGT; DNA, [I] at 15, backbone and methylation of C not given here) [SEQ ID NO:74]
Normalized IL-6 Response (Percentage of Positive Control) [7]: 21%
Normalized IL-6 Response (Percentage of Positive Control) (Experiment # 2, Max Conc 4.0 uM): 25%
Normalized IL-6 Response (Percentage of Positive Control) [6]: 23%

5′-TGCTTGTCCTGGAGGGGTTGT-3′ (DNA, backbone not given here; further chemistry not fully specified) [SEQ ID NO:43]
Normalized IL-6 Response (Percentage of Positive Control) [4]: 9%

5′-UGC CAA TCC TGG AGI GGT GTT GT (DNA UGCCAATCCTGGAGNGGTGTTGT; sugars from the 5' end m3 d20, [I] at 15, backbone not given here) [SEQ ID NO:135]
Normalized IL-6 Response (Percentage of Positive Control) [5]: 42%

5′-UGC HEG TCC TGG AGI GGT GTT GT (DNA NNNNTCCTGGAGNGGTGTTGT; HEG spacer, inosine, chemistry not fully specified) [SEQ ID NO:77]
Normalized IL-6 Response (Percentage of Positive Control) (Experiment # 3, Max Conc 4.0 uM): 24%

5′-UGC TCC TGG AGG GGT TGT (DNA NNNTCCTGGAGGGGTTGT; listed as DNA, chemistry not fully specified) [SEQ ID NO:83]
Normalized IL-6 Response (Percentage of Positive Control) [1]: 6%
Normalized IL-6 Response (Percentage of Positive Control) [4]: 6%

5′-UGC TCC TGG AGG GGU UGU (DNA UGCTCCTGGAGGGGUUGU; sugars from the 5' end m3 d11 m4, backbone not given here) [SEQ ID NO:85]
Normalized IL-6 Response (Percentage of Positive Control) [1]: 18%
Normalized IL-6 Response (Percentage of Positive Control) [4]: 18%
